Assay results from patent publication US20030040504A1, “Ectoparasiticidal compositions and methods of their use” (priority 2001, published 2003).

How the values were obtained:
[1] = cited from earlier work
[2] = at 60° C.; cited from earlier work
[3] = rat, guinea pig, rabbit, hamster, dog or human; cited from earlier work
[4] = system: head lice collected from Bristol school children; test: Filter paper disk test of malathion, OVIDE lotion and Composition II on resistant head lice (Example 1); format: in vivo, head lice (Pediculus capitis); conditions: for percentage activity of the lice, 100 being all alive, 0 being all dead: impregnated filter paper disk
Description: Following approval by the South and West Hospital research ethics committee, three primary schools in south Bristol, U.K. were contacted and arrangements were made with the headmaster/mistress and the school nurse to visit the schools and comb the hair of every child who has parental permission. Head lice were collected from children between 4 years and 11 years of age using plastic louse detector combs.
Head lice were placed and maintained at about 30° C. and about 70% relative humidity in a portable incubator for up to about two hours before being placed on filter paper test disks in small disposable petri dishes. These conditions of maintenance were the optimum for the lice off the human head. These head lice were then randomly distributed to petri dishes containing the control or impregnated disks and their activity was monitored by inspection over a four hour period. Since the portable incubator was designed to function either from the mains or a 12 volt source (cigarette lighter outlet in a car) the checking of lice activity was undertaken after leaving the school.
The disks, 5 cm in diameter, are paper, Whatman No. 1 Control paper disks were prepared by dipping papers into isopropanol and allowed to dry. Paper disks were prepared by dipping the paper into the solution of insecticide and allowed it to dry. Solutions used with the paper disks were 0.5% malathion in isopropanol, OVIDE® (malathion 0.5%) lotion, or Composition II disclosed herein. The dried paper disks were then stored overnight in air tight containers before using them the next day.
In the two subsequent tests, filter paper test disks were also used.
Values are given as percentage activity of the lice, 100 being all alive, 0 being all dead.

head lice = test: Viability of head lice on filter paper (Example 2); format: in vivo, head lice (Pediculus capitis)
Description: The viability of head lice was tested on filter paper under conditions as described in Example 1.

Question: With `c1ccc2c(c1)CCCC2` [1,2,3,4-tetrahydronaphthalene] as the compound, how does the “symptoms observed with acute exposures in humans” value [1] read?
Answer: The value was “transient liver damage; production of green-gray urine; CNS excitant at low concentration; depressant at high concentration; nephrotoxic (renal system damage); cataracts; liver and kidney damage; and cytotoxic to ascites cells in culture during short-term mutagenicity testing”.

Question: And the “Solubility in Water” value [2]?
Answer: Its value is < 0.01 % weight.

Question: Which “symptoms observed with acute exposures in humans” value [1] does the source give for `CC1=CCC(O)(C(C)C)CC1` (stereo not drawn) [1-terpinen-4-ol, 1-methyl-4-isopropyl-delta-cyclohexene-4-ol] here?
Answer: Its value is “CNS depression; cyanosis in extremities; increased urine volume; anti-microbial activity (α-terpineol does not have this activity); and greatly decreased allergic contact eczema compared to dipentene”.

Question: What does the source list for `C=C(C)C1CC=C(C)CC1` (stereo not drawn) [Dipentene, 1-methyl-4-(1-methylethenyl)cyclohexene]?
Answer: metabolic conversion to α-terpineol or 1-terpinen-4-ol [3]: not metabolically converted to either α-terpineol or to 1-terpinen-4-ol; symptoms observed with acute exposures in humans [1]: increased bile flow; hypothermia; increased cytochrome P450 content; hematuria (blood in urine); albuminuria (serum globulin in urine); tachycardia (rapid heart rate); increased allergic contact eczema; and no CNS involvement

Question: What does the source list for `CCOC(=O)CC(SP(=S)(OC)OC)C(=O)OCC` (stereo not drawn) [Malathion, [(dimethoxyphosphinothioyl)thio]butanedioic acid diethyl ester]?
Answer: percentage activity of the lice, 100 being all alive, 0 being all dead ([4]; Time 0 mins): 100%; percentage activity of the lice, 100 being all alive, 0 being all dead ([4]; Time 1 mins): 100%; percentage activity of the lice, 100 being all alive, 0 being all dead ([4]; Time 5 mins): 100%; percentage activity of the lice, 100 being all alive, 0 being all dead ([4]; Time 10 mins): 100%; percentage activity of the lice, 100 being all alive, 0 being all dead ([4]; Time 20 mins): 100%; percentage activity of the lice, 100 being all alive, 0 being all dead ([4]; Time 30 mins): 100%; percentage activity of the lice, 100 being all alive, 0 being all dead ([4]; Time 60 mins): 100%; percentage activity of the lice, 100 being all alive, 0 being all dead ([4]; Time 90 mins): 90%; percentage activity of the lice, 100 being all alive, 0 being all dead ([4]; Time 120 mins): 80%; percentage activity of the lice, 100 being all alive, 0 being all dead ([4]; Time 180 mins): 60%; percentage activity of the lice, 100 being all alive, 0 being all dead ([4]; Time 240 mins): 50%; lice killed ([4]; after about 4 hours): approximately 50%; Percent of Lice Still Alive (head lice; After 1 minute): 100%; Percent of Lice Still Alive (head lice; After 5 minutes): 100%; Percent of Lice Still Alive (head lice; After 10 minutes): 100%; Percent of Lice Still Alive (head lice; After 20 minutes): 100%; Percent of Lice Still Alive (head lice; After 30 minutes): 100%; Percent of Lice Still Alive (head lice; After 60 minutes): 100%; Percent of Lice Still Alive (head lice; After Minutes: None): 100%
